{"source": "patent US11339171B2", "about": "“MDM2 inhibitors” (Gan & Lee Pharmaceuticals, priority 2017, dated 2022)", "key": {"MDM2": {"target": "T1, MDM2 (Homo sapiens, UniProt Q00987)", "T1 construct": "made in house", "T1 sequence (Q00987 whole entry)": "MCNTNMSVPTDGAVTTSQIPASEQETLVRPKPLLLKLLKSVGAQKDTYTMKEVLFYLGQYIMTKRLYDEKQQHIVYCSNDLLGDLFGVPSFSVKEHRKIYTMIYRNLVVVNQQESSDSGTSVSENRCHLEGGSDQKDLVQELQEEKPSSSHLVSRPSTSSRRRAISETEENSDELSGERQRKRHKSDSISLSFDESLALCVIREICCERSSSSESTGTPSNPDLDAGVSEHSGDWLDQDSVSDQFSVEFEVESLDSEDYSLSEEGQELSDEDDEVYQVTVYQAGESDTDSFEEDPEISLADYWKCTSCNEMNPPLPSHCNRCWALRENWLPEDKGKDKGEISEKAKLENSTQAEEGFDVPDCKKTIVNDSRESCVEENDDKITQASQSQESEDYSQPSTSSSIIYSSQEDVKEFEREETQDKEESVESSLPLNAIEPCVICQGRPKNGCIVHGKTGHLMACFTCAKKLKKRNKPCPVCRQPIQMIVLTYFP", "test": "Inhibition test of MDM2-P53 (GST-MDM2, Biotin-P53, Anti-GST-Tb, SA-XL665)", "assay_type": "binding", "how_it_was_run": "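Compounds, serially diluted 5-fold (twelve concentrations), were shaken for 90 min at 25° C with a mix of GST-MDM2 (4 nM final), Biotin-P53, anti-GST-Tb and SA-XL665. Buffer: 1×PBS, 0.1% BSA, 5 mM DTT, 1 mM AEBSF; signal read on a microplate reader.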"}, "[1]": {"test": "Pharmacokinetics in ICR mice after intravenous and intragastric administration", "assay_type": "in vivo", "conditions": "for MRT last: read-out: MRT(0-t); for MRT inf: read-out: MRT(0-∞); for Vd: read-out: Vz", "how_it_was_run": "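Male ICR mice, fasted overnight, n=3 per route, given 2 mg/kg IV or 5 mg/kg intragastric in 5% DMSO/40% PEG400/55% (10% HP-β-CD in saline). Plasma drug levels measured by LC-MS/MS after protein precipitation (LLOQ 1 ng/mL); noncompartmental AUC, t1/2, MRT, Cmax, Tmax, F, Vz, CL derived.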"}, "[2]": {"test_system": "human osteosarcoma cell line SJSA-1", "test": "Inhibition of proliferation of human osteosarcoma cell line SJSA-1 (DAPI staining, In Cell Analyzer)", "conditions": "Homo sapiens, SJSA-1, 72 h, read-out: IC50 (nM), inhibitory activity on proliferation of human osteosarcoma cell line SJSA-1, SJSA-1, incubated 72 h"}, "[3]": {"conditions": "IV 2 mg/kg, ICR mice, individual animal, 2 mg/kg"}, "[4]": {"conditions": "PO 5 mg/kg, ICR mice, individual animal, 5 mg/kg"}, "[5]": {"conditions": "male, ICR, mouse, plasma, iv, 2 mg/kg, IV 2 mg/kg, ICR mice, Mean"}, "[6]": {"conditions": "male, ICR, mouse, plasma, iv, 2 mg/kg, IV 2 mg/kg, ICR mice, individual animal"}, "[7]": {"conditions": "male, ICR, mouse, plasma, po, 5 mg/kg, PO 5 mg/kg, ICR mice, Mean"}, "[8]": {"conditions": "male, ICR, mouse, plasma, po, 5 mg/kg, PO 5 mg/kg, ICR mice, individual animal"}}, "note": "pIC50: −log10 of the molar value. Values joined by “and” are separate entries in the source; they are usually repeats but may differ in a detail not shown here. Equal values may be shown once. Read-outs that look alike come from different tables or passages of the source.", "data": [{"compound": "COc1cc(OC)c(-c2nc3c(n2C(C)C)[C@@]2(C(=O)Nc4cc(Cl)ccc42)N(c2cc(Cl)ccc2C)C3=O)cn1", "note": "[Example S-11, (S)-6-chloro-5′-(5-chloro-2-methylphenyl)-2′-(4,6-dimethoxypyridin-3-yl)-3′-isopropyl-3′H-spiro[dihydroindole-3,4′-pyrrolo[3,4-d]imidazole]-2,6′(5′H)-dione]", "values": [{"measurement": "pIC50", "setting": "MDM2", "value": 8.80}, {"measurement": "AUC(0-t)", "setting": "[1]; [3]", "value": "3578.38 ng·h/mL and 4225.58 ng·h/mL"}, {"measurement": "AUC(0-∞)", "setting": "[1]; [3]", "value": "3680.24 ng·h/mL and 4820.40 ng·h/mL"}, {"measurement": "CL", "setting": "[1]; [3]", "value": "9.06 mL/min/kg and 6.92 mL/min/kg"}, {"measurement": "Cmax", "setting": "[1]; [3]", "value": "1376.51 ng/mL and 1519.69 ng/mL"}, {"measurement": "MRT(0-t)", "setting": "[1]; [3]", "value": "1.43 h and 1.81 h"}, {"measurement": "MRT(0-∞)", "setting": "[1]; [3]", "value": "1.61 h and 2.70 h"}, {"measurement": "Vz", "setting": "[1]; [3]", "value": "0.91 L/kg and 1.25 L/kg"}, {"measurement": "t1/2", "setting": "[1]; [3]", "value": 2.09, "unit": "h"}, {"measurement": "F*", "setting": "[1]; PO 5 mg/kg vs IV 2 mg/kg, ICR mice", "value": 102.51, "unit": "%"}, {"measurement": "AUC(0-t)", "setting": "[1]; [4]", "value": "8536.56 ng·h/mL and 11568.40 ng·h/mL"}, {"measurement": "AUC(0-∞)", "setting": "[1]; [4]", "value": "8816.41 ng·h/mL and 11784.98 ng·h/mL"}, {"measurement": "Cmax", "setting": "[1]; [4]", "value": "1573.02 ng/mL and 2144.69 ng/mL"}, {"measurement": "MRT(0-t)", "setting": "[1]; [4]", "value": 2.87, "unit": "h"}, {"measurement": "MRT(0-∞)", "setting": "[1]; [4]", "value": "3.11 h and 3.05 h"}, {"measurement": "Tmax", "setting": "[1]; [4]", "value": 2.00, "unit": "h"}, {"measurement": "t1/2", "setting": "[1]; [4]", "value": "1.55 h and 1.33 h"}, {"measurement": "AUC(0-inf)", "setting": "[1]; [5]", "value": 3920, "unit": "ng·h/mL"}, {"measurement": "clearance", "setting": "[1]; [5]", "value": 8.74, "unit": "mL/min/kg"}, {"measurement": "AUC(0-t)", "setting": "[1]; male, ICR, mouse, plasma, iv, 2 mg/kg, IV 2 mg/kg, ICR mice, Mean, read-out: AUC(0-t)", "value": 3660, "unit": "ng·h/mL"}, {"measurement": "Cmax", "setting": "[1]; male, ICR, mouse, plasma, iv, 2 mg/kg, IV 2 mg/kg, ICR mice, Mean, read-out: Cmax", "value": 1400, "unit": "ng/mL"}, {"measurement": "MRT last", "setting": "[1]; [5]", "value": 1.55, "unit": "h"}, {"measurement": "MRT inf", "setting": "[1]; [5]", "value": 1.95, "unit": "h"}, {"measurement": "Tmax", "setting": "[1]; male, ICR, mouse, plasma, iv, 2 mg/kg, IV 2 mg/kg, ICR mice, Mean, read-out: Tmax", "value": 0.5, "unit": "h"}, {"measurement": "Vd", "setting": "[1]; [5]", "value": 1.06, "unit": "L/kg"}, {"measurement": "half-life", "setting": "[1]; male, ICR, mouse, plasma, iv, 2 mg/kg, IV 2 mg/kg, ICR mice, Mean, read-out: t1/2 (converted)", "value": 1.46, "unit": "h"}, {"measurement": "AUC(0-inf)", "setting": "[1]; [6]", "value": 3250, "unit": "ng·h/mL"}, {"measurement": "clearance", "setting": "[1]; [6]", "value": 10.3, "unit": "mL/min/kg"}, {"measurement": "AUC(0-t)", "setting": "[1]; male, ICR, mouse, plasma, iv, 2 mg/kg, IV 2 mg/kg, ICR mice, individual animal, read-out: AUC(0-t)", "value": 3170, "unit": "ng·h/mL"}, {"measurement": "Cmax", "setting": "[1]; male, ICR, mouse, plasma, iv, 2 mg/kg, IV 2 mg/kg, ICR mice, individual animal, read-out: Cmax", "value": 1300, "unit": "ng/mL"}, {"measurement": "MRT last", "setting": "[1]; [6]", "value": 1.4, "unit": "h"}, {"measurement": "MRT inf", "setting": "[1]; [6]", "value": 1.55, "unit": "h"}, {"measurement": "Tmax", "setting": "[1]; male, ICR, mouse, plasma, iv, 2 mg/kg, IV 2 mg/kg, ICR mice, individual animal, read-out: Tmax", "value": 0.5, "unit": "h"}, {"measurement": "Vd", "setting": "[1]; [6]", "value": 1.02, "unit": "L/kg"}, {"measurement": "half-life", "setting": "[1]; male, ICR, mouse, plasma, iv, 2 mg/kg, IV 2 mg/kg, ICR mice, individual animal, read-out: t1/2 (converted)", "value": 1.15, "unit": "h"}, {"measurement": "AUC(0-inf)", "setting": "[1]; [7]", "value": 9790, "unit": "ng·h/mL"}, {"measurement": "AUC(0-t)", "setting": "[1]; male, ICR, mouse, plasma, po, 5 mg/kg, PO 5 mg/kg, ICR mice, Mean, read-out: AUC(0-t)", "value": 9370, "unit": "ng·h/mL"}, {"measurement": "Cmax", "setting": "[1]; male, ICR, mouse, plasma, po, 5 mg/kg, PO 5 mg/kg, ICR mice, Mean, read-out: Cmax", "value": 1790, "unit": "ng/mL"}, {"measurement": "MRT last", "setting": "[1]; [7]", "value": 2.92, "unit": "h"}, {"measurement": "MRT inf", "setting": "[1]; [7]", "value": 3.27, "unit": "h"}, {"measurement": "Tmax", "setting": "[1]; male, ICR, mouse, plasma, po, 5 mg/kg, PO 5 mg/kg, ICR mice, Mean, read-out: Tmax", "value": 1.33, "unit": "h"}, {"measurement": "half-life", "setting": "[1]; male, ICR, mouse, plasma, po, 5 mg/kg, PO 5 mg/kg, ICR mice, Mean, read-out: t1/2 (converted)", "value": 1.69, "unit": "h"}, {"measurement": "AUC(0-inf)", "setting": "[1]; [8]", "value": 8770, "unit": "ng·h/mL"}, {"measurement": "AUC(0-t)", "setting": "[1]; male, ICR, mouse, plasma, po, 5 mg/kg, PO 5 mg/kg, ICR mice, individual animal, read-out: AUC(0-t)", "value": 8020, "unit": "ng·h/mL"}, {"measurement": "Cmax", "setting": "[1]; male, ICR, mouse, plasma, po, 5 mg/kg, PO 5 mg/kg, ICR mice, individual animal, read-out: Cmax", "value": 1650, "unit": "ng/mL"}, {"measurement": "MRT last", "setting": "[1]; [8]", "value": 2.96, "unit": "h"}, {"measurement": "MRT inf", "setting": "[1]; [8]", "value": 3.66, "unit": "h"}, {"measurement": "Tmax", "setting": "[1]; male, ICR, mouse, plasma, po, 5 mg/kg, PO 5 mg/kg, ICR mice, individual animal, read-out: Tmax", "value": 1, "unit": "h"}, {"measurement": "half-life", "setting": "[1]; male, ICR, mouse, plasma, po, 5 mg/kg, PO 5 mg/kg, ICR mice, individual animal, read-out: t1/2 (converted)", "value": 2.18, "unit": "h"}, {"measurement": "AUC(0-t)", "setting": "[1]; male, ICR, mouse, plasma, po, 5 mg/kg, oral intragastric administration 5 mg/kg, read-out: AUC0-t", "value": 9370, "unit": "ng·h/mL"}, {"measurement": "half-life", "setting": "[1]; male, ICR, mouse, plasma, po, 5 mg/kg, oral intragastric administration 5 mg/kg, read-out: half-life (converted)", "value": 1.69, "unit": "h"}, {"measurement": "bioavailability", "setting": "[1]; male, ICR, mouse, plasma, oral intragastric administration 5 mg/kg, read-out: bioavailability", "value": 103, "unit": "%"}, {"measurement": "IC50", "setting": "[2]", "value": 1.67, "unit": "nM"}]}]}
